Experimental data reported in ChEMBL document CHEMBL1201862, “PubChem BioAssay data set” (2004).
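Five concentrations, 48 hours, 96-well plates. Abbreviation: GI50, concentration required for 50% inhibition of growth.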 The source made the active and inactive calls. No stated cut-off is given here; in the data, active = GI50 up to about 1.1 µM and inactive = higher.

Key:
Test in all cases: DTP human tumour cell line panel, 48 h
M19-MEL = tested on: M19-MEL
M14 = tested on: M14
CAKI-1 = tested on: CAKI-1
ACHN = tested on: ACHN
TK-10 = tested on: TK-10
DMS-114 = tested on: DMS-114
UACC-62 = tested on: UACC-62
NCI-H23 = tested on: NCI-H23
SN12C = tested on: SN12C
SW-620 = tested on: SW-620
OVCAR-5 = tested on: OVCAR-5
KM-20L2 = tested on: KM-20L2
UO-31 = tested on: UO-31
DLD-1 = tested on: DLD-1
SF-268 = tested on: SF-268
OVCAR-4 = tested on: OVCAR-4
K562 = tested on: K562
SK-MEL-2 = tested on: SK-MEL-2
NCI-H522 = tested on: NCI-H522
SF-295 = tested on: SF-295
HT-29 = tested on: HT-29
SK-MEL-5 = tested on: SK-MEL-5
SR = tested on: SR
MOLT-4 = tested on: MOLT-4
OVCAR-3 = tested on: OVCAR-3
HL-60 = tested on: HL-60
CCRF-CEM = tested on: CCRF-CEM
786-0 = tested on: 786-0
SF-539 = tested on: SF-539
IGROV-1 = tested on: IGROV-1
EKVX = tested on: EKVX
COLO 205 = tested on: COLO 205
OVCAR-8 = tested on: OVCAR-8
A498 = tested on: A498
SK-MEL-28 = tested on: SK-MEL-28
A549 = tested on: A549
SK-OV-3 = tested on: SK-OV-3
HOP-92 = tested on: HOP-92
NCI-H460 = tested on: NCI-H460
RXF 393 = tested on: RXF 393
HCT-116 = tested on: HCT-116
KM12 = tested on: KM12
HOP-62 = tested on: HOP-62
RPMI-8226 = tested on: RPMI-8226
HCC 2998 = tested on: HCC 2998
SNB-19 = tested on: SNB-19
UACC-257 = tested on: UACC-257
Malme-3M = tested on: Malme-3M
LOX IMVI = tested on: LOX IMVI
SNB-75 = tested on: SNB-75
U-251 = tested on: U-251
DU-145 = tested on: DU-145
NCI-H226 = tested on: NCI-H226
MDA-MB-435 = tested on: MDA-MB-435
HCT-15 = tested on: HCT-15
MCF7 = tested on: MCF7
Hs-578T = tested on: Hs-578T
PC-3 = tested on: PC-3
T47D = tested on: T47D
MDA-MB-231 = tested on: MDA-MB-231
BT-549 = tested on: BT-549
NCI/ADR-RES = tested on: NCI/ADR-RES
MDA-N = tested on: MDA-N

In the case of `CNS(=O)(=O)NN(C)S(=O)(=O)c1ccc(C)cc1`, the GI50 (M19-MEL) was > 100 µM (inactive), the GI50 (M14) was > 100 µM (inactive) and the GI50 (CAKI-1) was > 100 µM (inactive). For the same compound, the GI50 (ACHN) was > 100 µM (inactive), the GI50 (TK-10) was > 100 µM (inactive) and the GI50 (DMS-114) was > 100 µM (inactive). For the same compound, the GI50 (UACC-62) was > 100 µM (inactive), the GI50 (NCI-H23) was > 100 µM (inactive) and the GI50 (SN12C) was > 100 µM (inactive). The GI50 (SW-620) was > 100 µM (inactive), the GI50 (OVCAR-5) was > 100 µM (inactive) and the GI50 (KM-20L2) was > 100 µM (inactive). For the same compound, the GI50 (UO-31) was > 100 µM (inactive), the GI50 (DLD-1) was > 100 µM (inactive) and the GI50 (SF-268) was > 100 µM (inactive). For the same compound, the GI50 (OVCAR-4) was > 100 µM (inactive), the GI50 (K562) was > 10 µM (inactive) and the GI50 (SK-MEL-2) was > 100 µM (inactive). For the same compound, the GI50 (NCI-H522) was > 100 µM (inactive), the GI50 (SF-295) was > 100 µM (inactive) and the GI50 (HT-29) was > 100 µM (inactive). For the same compound, the GI50 (SK-MEL-5) was > 100 µM (inactive), the GI50 (SR) was > 100 µM (inactive) and the GI50 (MOLT-4) was > 100 µM (inactive). The GI50 (OVCAR-3) was > 100 µM (inactive), the GI50 (HL-60) was > 100 µM (inactive) and the GI50 (CCRF-CEM) was > 100 µM (inactive). For the same compound, the GI50 (786-0) was > 100 µM (inactive), the GI50 (SF-539) was > 100 µM (inactive) and the GI50 (IGROV-1) was > 100 µM (inactive). For the same compound, the GI50 (EKVX) was > 100 µM (inactive), the GI50 (COLO 205) was > 100 µM (inactive) and the GI50 (OVCAR-8) was > 100 µM (inactive). The GI50 (A498) was > 100 µM (inactive), the GI50 (SK-MEL-28) was > 100 µM (inactive) and the GI50 (A549) was > 100 µM (inactive). For the same compound, the GI50 (SK-OV-3) was > 100 µM (inactive), the GI50 (HOP-92) was > 100 µM (inactive) and the GI50 (NCI-H460) was > 100 µM (inactive). The GI50 (RXF 393) was > 100 µM (inactive), the GI50 (HCT-116) was > 100 µM (inactive) and the GI50 (KM12) was > 100 µM (inactive). For the same compound, the GI50 (HOP-62) was > 100 µM (inactive), the GI50 (RPMI-8226) was > 100 µM (inactive) and the GI50 (HCC 2998) was > 100 µM (inactive). The GI50 (SNB-19) was > 100 µM (inactive), the GI50 (UACC-257) was > 100 µM (inactive) and the GI50 (Malme-3M) was > 100 µM (inactive).

For `O=C1/C(=C/c2ccc(F)cc2)CNC/C1=C\c1ccc(F)cc1`, the GI50 (LOX IMVI) was 0.63 µM (active), the GI50 (M14) was 1.99 µM (inactive) and the GI50 (CAKI-1) was 1.12 µM (inactive). For the same compound, the GI50 (ACHN) was 1.71 µM (inactive), the GI50 (TK-10) was 2.21 µM (inactive) and the GI50 (SNB-75) was 3.75 µM (inactive). The GI50 (UACC-62) was 2.32 µM (inactive), the GI50 (U-251) was 0.41 µM (active) and the GI50 (NCI-H23) was 1.5 µM (inactive). For the same compound, the GI50 (SN12C) was 2.14 µM (inactive), the GI50 (SW-620) was 0.364 µM (active) and the GI50 (OVCAR-5) was 2.88 µM (inactive). The GI50 (UO-31) was 1.81 µM (inactive), the GI50 (DU-145) was 1.75 µM (inactive) and the GI50 (SF-268) was 0.818 µM (active). The GI50 (OVCAR-4) was 2.09 µM (inactive), the GI50 (NCI-H226) was 2.82 µM (inactive) and the GI50 (K562) was 0.245 µM (active). For the same compound, the GI50 (MDA-MB-435) was 2.49 µM (inactive), the GI50 (SK-MEL-2) was 12 µM (inactive) and the GI50 (NCI-H522) was 1.53 µM (inactive). The GI50 (SF-295) was 2.09 µM (inactive), the GI50 (HT-29) was 0.664 µM (active) and the GI50 (SK-MEL-5) was 1.42 µM (inactive). For the same compound, the GI50 (SR) was 0.305 µM (active), the GI50 (MOLT-4) was 2.11 µM (inactive) and the GI50 (OVCAR-3) was 1.65 µM (inactive). For the same compound, the GI50 (HL-60) was 0.383 µM (active), the GI50 (CCRF-CEM) was 0.445 µM (active) and the GI50 (786-0) was 0.762 µM (active). For the same compound, the GI50 (SF-539) was 0.865 µM (active), the GI50 (IGROV-1) was 0.667 µM (active) and the GI50 (HCT-15) was 0.498 µM. The GI50 (EKVX) was 1.94 µM (inactive), the GI50 (MCF7) was 0.813 µM (active) and the GI50 (COLO 205) was 1.44 µM (inactive). For the same compound, the GI50 (OVCAR-8) was 2.07 µM (inactive), the GI50 (Hs-578T) was 4.6 µM (inactive) and the GI50 (A498) was 2.25 µM (inactive). For the same compound, the GI50 (SK-MEL-28) was 1.05 µM (active), the GI50 (A549) was 2.92 µM (inactive) and the GI50 (SK-OV-3) was 6.92 µM (inactive). For the same compound, the GI50 (HOP-92) was 3.61 µM (inactive), the GI50 (NCI-H460) was 0.675 µM (active) and the GI50 (RXF 393) was 1.82 µM (inactive). For the same compound, the GI50 (HCT-116) was 0.27 µM (active), the GI50 (KM12) was 0.53 µM (active) and the GI50 (HOP-62) was 1.78 µM (inactive). For the same compound, the GI50 (RPMI-8226) was 0.275 µM (active), the GI50 (PC-3) was 1.79 µM (inactive) and the GI50 (HCC 2998) was 0.214 µM (active). The GI50 (T47D) was 3.37 µM (inactive), the GI50 (SNB-19) was 1.59 µM (inactive) and the GI50 (UACC-257) was 3.76 µM (inactive). The GI50 (Malme-3M) was 3.28 µM (inactive), the GI50 (MDA-MB-231) was 2.39 µM (inactive) and the GI50 (BT-549) was 1.01 µM (active). The GI50 (NCI/ADR-RES) was 2.95 µM (inactive) and the GI50 (MDA-N) was 1.95 µM (inactive).
